The record followed here is US6413739B1, “AMPA-binding human GLuR3 receptors” (priority 1992, dated 2002).

One test deals with human GluR3 receptor. Nature of the test: ligand binding assay (NMDA), membranes of transfected COS cells. The conditions noted are these: COS cell membranes.
The next test deals with human GluR3B receptor. Description: binding assays with membrane preparations of engineered mammalian cells. An excerpt: This feature, coupled with the medically significant connection between AMPA-type receptors and neurological disorders and disease indicate that the present receptors, as well as AMPA-binding fragments and variants thereof, will serve as valuable tools in the screening and discovery of ligands useful to modulate in vivo interactions between such receptors and their natural ligand, glutamate. Thus, a key aspect of the present invention resides in the construction of cells that are engineered genetically to produce human GluR3 receptor, to serve as a ready and homogeneous source of receptor for use in in vitro ligand binding and/or channel activation assays.

Test [1] relates to human GluR3A receptor. Description: AMPA-binding assay, membranes of transfected COS-1 cells. How it is done: (§1) Transfected cells in the frozen state were resuspended in ice-cold distilled water using a hand homogenizer, sonicated for 5 seconds, and then centrifuged for 20 minutes at 50,000 g. The supernatant was discarded and the membrane pellet stored frozen at −70 C.
(§2) COS cell membrane pellets were suspended in ice cold 50 mM Tris-HCl (pH 7.55, 5 C) and centrifuged again at 50,000 g for 10 minutes in order to remove endogenous glutamate that would compete for binding. Pellets were resuspended in ice cold 50 mM Tris-HCl (pH 7.55) buffer and the resultant membrane preparation was used as tissue source for binding experiments described below. Proteins were determined using the Pierce Reagent with BSA as standard.
Binding assays were then performed, using an amount of COS-derived membrane equivalent to from 25-100 ug as judged by protein determination and selected radiolabelled ligand. In particular, for AMPA-binding assays, incubation mixtures consisted of 25-100 ug tissue protein and D,L-alpha-[5-methyl-3H]amino-3-hydroxy-5-methylisoxazole-4-propionic acid (3H-AMPA, 27.6 Ci/mmole, 10 nM final) with 0.1 M KSCN and 2.5 mM CaCl2 in the 1 ml final volume. Non-specific […] binding was determined in the presence of 1 mM L-glutamate. […] Pellets were washed twice in 6 ml of the cold incubation buffer, then 5 ml of Beckman Ready-Protein Plus scintillation cocktail was added, for counting.

For test [2], the system named is human GluR3A receptor. Description: kainate-binding assay, membranes of transfected COS-1 cells. Particulars: COS cell membranes; [vinylidene-3H] kainic acid 5 nM. As to the method:
as §1, §2
For kainate-binding assays, incubation mixtures consisted of 25-100 ug tissue protein and [vinylidene-3H] kainic acid (58 Ci/mmole, 5 nM final) in the cold incubation buffer, 1 ml final volume. Non-specific binding was determined in the presence of 1 mM L-glutamate. Samples were incubated as for the AMPA-binding assays, and bound and free ligand were separated by rapid filtration using a Brandel cell harvester and GF/B filters pre-soaked in ice-cold 0.3% polyethyleneimine. Filters were washed twice in 6 ml of the cold incubation buffer, then placed in scintillation vials with 5 ml of Beckman Ready-Protein Plus scintillation cocktail for counting.

Consider `CN[C@H](CC(=O)O)C(=O)O` [NMDA, N-methyl-D-aspartate], for which the “binding of NMDA” value in the test on human GluR3 receptor is listed as “little or no demonstrable binding”. As to `Cc1onc(O)c1CC(N)C(=O)O` (stereo not drawn) [AMPA, alpha-amino-3-hydroxy-5-methyl-isoxazole-4propionate], the “selective binding relative to kainate and NMDA” value in the test with human GluR3B receptor is reported as “bind selectively”; with human GluR3A receptor [1] (human GluR3A, membrane preparations), “bind selectively”. The specific binding in the test on human GluR3A receptor [1] (10 nM [3H]-AMPA, COS cell membranes, non-specific binding with 1 mM L-glutamate, FIG. 7) is listed as 25-30 fmole/mg protein. As for `C=C(C)[C@H]1CN[C@H](C(=O)O)[C@H]1CC(=O)O` [kainate, kainic acid], the binding of kainate result with human GluR3A receptor [2] is “little or no demonstrable binding”.
